{"source": "patent US5362724A", "about": "“Thioalkylthio carbacephalosporin derivatives” (Shionogi & Co., Ltd., priority 1992, dated 1994)", "key": {"[1]": {"system": "S. maecescense ATCC 13880", "assay": "In vitro antibacterial activity (MIC, two-fold agar dilution) against S. marcescense ATCC 13880", "assay_type": "cell-based, Seratia marcescense", "description": "(§1) The in vitro antibacterial activity of a compound as prepared in the foregoing Example was evaluated as follows. A compound to be tested was dissolved in 0.01N aqueous solution of sodium hydrogen carbonate and the solution was applied to an agar plate and the minimal inhibitory concentration (MIC) against each bacterium was measured by two-fold dilution method according to the standard method of the Japan Society of Chemotherapy.\n(§2) In the assay, as a control compound, 7β-[(Z)-2-(2-amino-4-thiazolyl)-2-hydroxyiminoacetamido]-3-(1,2,3-triazol-4-yl)thiomethylthio-3-cephem-4-carboxylic acid (a thiomethylthio cephalosporin disclosed in U.S. patent application Ser. No. 07/729,413, filed on Jul. 12, 1991, now U.S. Pat. No. 5,214,037, and EPO Application Publication No. 0 467 647 A2) was used.\n(§3) In the tables, Compound A is a compound of the invention and Compound B is a control compound."}, "[2]": {"assay": "In vivo pharmacokinetics, blood level in mice after administration", "conditions": "mouse, 10 mg/kg, 3 hr after administration", "description": "The in vivo pharmacokinetics was also investigated in mice by measuring the blood level at 3 hr after administrating a test compound to a mouse (10 mg/kg).\nas §2, §3"}, "E. coli SR377": {"system": "E. coli SR377", "assay": "In vitro antibacterial activity (MIC, two-fold agar dilution) against E. coli SR377", "assay_type": "cell-based", "conditions": "Escherichia coli", "description": "as §1, §2, §3"}, "E. cloacae ATCC 13047": {"system": "E. cloacae ATCC 13047", "assay": "In vitro antibacterial activity (MIC, two-fold agar dilution) against E. cloacae ATCC 13047", "assay_type": "cell-based", "conditions": "Enterobacter cloacae, ATCC13047", "description": "as §1, §2, §3"}, "E. cloacae SR233": {"system": "E. cloacae SR233", "assay": "In vitro antibacterial activity (MIC, two-fold agar dilution) against E. cloacae SR233", "assay_type": "cell-based", "conditions": "Enterobacter cloacae", "description": "as §1, §2, §3"}, "K. pneumoniae SRI": {"system": "K. pneumoniae SRI", "assay": "In vitro antibacterial activity (MIC, two-fold agar dilution) against K. pneumoniae SRI", "assay_type": "cell-based", "conditions": "Klebsiella pneumoniae", "description": "as §1, §2, §3"}, "E. coli EC-14": {"system": "E. coli EC-14", "assay": "In vitro antibacterial activity (MIC, two-fold agar dilution) against E. coli EC-14", "assay_type": "cell-based", "conditions": "Escherichia coli, EC14", "description": "as §1, §2, §3"}, "E. coli SR73": {"system": "E. coli SR73", "assay": "In vitro antibacterial activity (MIC, two-fold agar dilution) against E. coli SR73", "assay_type": "cell-based", "conditions": "Escherichia coli", "description": "as §1, §2, §3"}, "E. coli JC-2": {"system": "E. coli JC-2", "assay": "In vitro antibacterial activity (MIC, two-fold agar dilution) against E. coli JC-2", "assay_type": "cell-based", "conditions": "Escherichia coli, JC2", "description": "as §1, §2, §3"}, "[3]": {"assay": "Binding ability to plasma proteins", "assay_type": "in vitro ADME", "conditions": "tentative value"}}}
{"compound": "Nc1nc(/C(=N/O)C(=O)N[C@@H]2C(=O)N3C(C(=O)O)=C(SCSc4c[nH]nn4)CC[C@H]23)cs1", "note": "[Compound A, 7β-[(Z)-2-(2-Aminothiazol-4-yl)-2-hydroxyiminoacetamido]-3-(1,2,3-triazol-4-ylthiomethylthio)-1-carba-3-cephem-4-carboxylic acid]", "values": [{"measurement": "MIC", "setting": "[1]", "value": 0.2, "unit": "µg/mL"}, {"measurement": "concentration at 3 h", "setting": "[2]", "value": 82000, "unit": "ng/mL"}, {"measurement": "MIC", "setting": "E. coli SR377", "value": 0.2, "unit": "µg/mL"}, {"measurement": "MIC", "setting": "E. cloacae ATCC 13047", "value": 12.5, "unit": "µg/mL"}, {"measurement": "MIC", "setting": "E. cloacae SR233", "value": 0.1, "unit": "µg/mL"}, {"measurement": "MIC", "setting": "K. pneumoniae SRI", "value": 0.025, "unit": "µg/mL"}, {"measurement": "MIC", "setting": "E. coli EC-14", "value": 0.025, "unit": "µg/mL"}, {"measurement": "MIC", "setting": "E. coli SR73", "value": 0.39, "unit": "µg/mL"}, {"measurement": "MIC", "setting": "E. coli JC-2", "value": 0.05, "unit": "µg/mL"}, {"measurement": "fraction unbound", "setting": "[3]", "value": 0.1}]}
{"compound": "Nc1nc(/C(=N/O)C(=O)N[C@@H]2C(=O)N3C(C(=O)O)=C(SCSc4c[nH]nn4)CS[C@H]23)cs1", "note": "[Compound B, 7β-[(Z)-2-(2-amino-4-thiazolyl)-2-hydroxyiminoacetamido]-3-(1,2,3-triazol-4-yl)thiomethylthio-3-cephem-4-carboxylic acid]", "values": [{"measurement": "MIC", "setting": "[1]", "value": 3.2, "unit": "µg/mL"}, {"measurement": "concentration at 3 h", "setting": "[2]", "value": 18000, "unit": "ng/mL"}, {"measurement": "MIC", "setting": "E. coli SR377", "value": 0.8, "unit": "µg/mL"}, {"measurement": "MIC", "setting": "E. cloacae ATCC 13047", "value": 100, "unit": "µg/mL"}, {"measurement": "MIC", "setting": "E. cloacae SR233", "value": 0.8, "unit": "µg/mL"}, {"measurement": "MIC", "setting": "K. pneumoniae SRI", "value": 0.1, "unit": "µg/mL"}, {"measurement": "MIC", "setting": "E. coli EC-14", "value": 0.1, "unit": "µg/mL"}, {"measurement": "MIC", "setting": "E. coli SR73", "value": 1.6, "unit": "µg/mL"}, {"measurement": "MIC", "setting": "E. coli JC-2", "value": 0.3, "unit": "µg/mL"}, {"measurement": "fraction unbound", "setting": "[3]", "value": 0.04}]}
